Experimental data: patent publication US20240246937A1 (MERCK SHARP & DOHME LLC, priority 2021, published 2024)

Molecular target: recombinant IL4I1 (Homo sapiens (Human), UniProt Q96RQ9)
Test: IL4I1 Enzymatic Assay (Amplex Red/HRP coupled fluorescence detection of H2O2)
Type: biochemical
Settings: 240 min; recombinant IL4I1, four-hour pre-incubation with compound
How it was run: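 Recombinant human IL4I1 (1 nM final) pre-incubated 4 h with compound at ambient temperature in 50 mM Hepes pH 7.0, 0.005% Tween20. Started with 1 mM each Phe/Tyr/Trp plus Amplex Red/HRP; H2O2-derived resorufin fluorescence read after 120 min; EC50 from ten-point 1:3 titration, four-parameter fit.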

Chain of recombinant IL4I1 (Q96RQ9 22-567): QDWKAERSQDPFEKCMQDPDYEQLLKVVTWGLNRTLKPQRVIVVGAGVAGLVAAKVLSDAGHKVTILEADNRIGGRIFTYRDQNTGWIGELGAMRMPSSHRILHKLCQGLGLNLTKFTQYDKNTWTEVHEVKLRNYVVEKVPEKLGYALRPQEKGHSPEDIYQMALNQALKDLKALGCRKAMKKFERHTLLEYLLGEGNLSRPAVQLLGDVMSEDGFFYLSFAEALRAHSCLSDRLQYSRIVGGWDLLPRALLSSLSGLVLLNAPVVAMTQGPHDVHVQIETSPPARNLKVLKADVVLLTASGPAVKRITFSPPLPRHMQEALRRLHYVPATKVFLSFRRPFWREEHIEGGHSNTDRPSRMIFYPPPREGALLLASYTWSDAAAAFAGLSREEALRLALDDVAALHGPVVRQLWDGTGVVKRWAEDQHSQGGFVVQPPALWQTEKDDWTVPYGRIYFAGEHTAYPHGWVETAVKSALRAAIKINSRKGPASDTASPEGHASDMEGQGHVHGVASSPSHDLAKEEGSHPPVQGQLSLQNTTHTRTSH

| Structure (SMILES) | EC50 |
| --- | --- |
| O=c1c(=O)n(C2CCCC2)ccn1Cc1nnc(-c2ccccc2)s1 [Example 124, 1-cyclopentyl-4-((5-phenyl-1,3,4-thiadiazol-2-yl)methyl)-1,4-dihydropyrazine-2,3-dione] | 7 nM |
| O=c1c(=O)n(C23CC(C2)C3)ccn1Cc1nnc(-c2cccc(F)c2)s1 [Example 144, 1-(bicyclo[1.1.1]pentan-1-yl)-4-((5-(3-fluorophenyl)-1,3,4-thiadiazol-2-yl)methyl)-1,4-dihydropyrazine-2,3-dione] | 2 nM |
| O=C1C(=O)N(C23CC(C2)C3)CCN1Cc1ccc(-n2nccn2)nc1 [Example 116, 1-((6-(2H-1,2,3-triazol-2-yl)pyridin-3-yl)methyl)-4-(bicyclo[1.1.1]pentan-1-yl)piperazine-2,3-dione] | 17 nM |
| O=C1C(=O)N(C2CCCC2)CCN1Cc1ncc(-n2nccn2)cn1 [Example 378, 1-((5-(2H-1,2,3-triazol-2-yl)pyrimidin-2-yl)methyl)-4-cyclopentylpiperazine-2,3-dione] | 138 nM |
| O=C1C(=O)N(C2CC(C3CC3)C2)CCN1Cc1nnc(-c2ccccc2)s1 (stereo not shown) [Example 291, 1-(3-cyclopropylcyclobutyl)-4-((5-phenyl-1,3,4-thiadiazol-2-yl)methyl)piperazine-2,3-dione] | 4 nM |
| O=C1C(=O)N(C23CC(C2)C3)CCN1Cc1ccc(-n2ccnn2)nc1 [Example 117, 1-((6-(1H-1,2,3-triazol-1-yl)pyridin-3-yl)methyl)-4-(bicyclo[1.1.1]pentan-1-yl)piperazine-2,3-dione] | 14 nM |
| CC1CN(C2CCC2)C(=O)C(=O)N1Cc1nnc(-c2ccccc2)s1 (single isomer, unassigned) [Example 437, (R or S)-1-cyclobutyl-5-methyl-4-((5-phenyl-1,3,4-thiadiazol-2-yl)methyl)piperazine-2,3-dione] | 34 nM |
| O=C1C(=O)N(c2ccccn2)CCN1Cc1ccc(-c2ccccc2)nn1 [Example 433, 1-((6-phenylpyridazin-3-yl)methyl)-4-(pyridin-2-yl)piperazine-2,3-dione] | 37 nM |
| CC(CF)N1CCN(Cc2ncc(-c3ccccc3)cn2)C(=O)C1=O (stereo not shown) [Example 288, 1-(1-fluoropropan-2-yl)-4-((5-phenylpyrimidin-2-yl)methyl)piperazine-2,3-dione] | 37 nM |
| O=C1C(=O)N(C2CCC2)CCN1Cc1cc(-c2ccccc2F)no1 [Example 149, 1-cyclobutyl-4-((3-(2-fluorophenyl)isoxazol-5-yl)methyl)piperazine-2,3-dione] | 3 nM |
| O=C1C(=O)N(C2CCC2)CCN1Cc1cnc(-c2ccccc2)s1 [Example 70, 1-cyclobutyl-4-((2-phenylthiazol-5-yl)methyl)piperazine-2,3-dione] | 4 nM |
| O=c1c(=O)n(C2CCC2)ccn1Cc1ccc(-n2cccn2)nn1 [Example 329, 1-((6-(1H-pyrazol-1-yl)pyridazin-3-yl)methyl)-4-cyclobutyl-1,4-dihydropyrazine-2,3-dione] | 15 nM |
| O=C1C(=O)N(C2CCC2)CCN1Cc1nnc(-c2ccccn2)s1 [Example 369, 1-cyclobutyl-4-((5-(pyridin-2-yl)-1,3,4-thiadiazol-2-yl)methyl)piperazine-2,3-dione] | 32 nM |
| CC(C)(C)N1CCN(Cc2nnc(-c3ccccc3)s2)C(=O)C1=O [Example 307, 1-(tert-butyl)-4-((5-phenyl-1,3,4-thiadiazol-2-yl)methyl)piperazine-2,3-dione] | 20 nM |
| O=C1C(=O)N(C2CCC2)CCN1Cc1ncc(-c2ccccc2F)s1 [Example 426, 1-cyclobutyl-4-((5-(2-fluorophenyl)thiazol-2-yl)methyl)piperazine-2,3-dione] | 5 nM |
| N#CC1CCC(n2ccn(Cc3nnc(-c4ccccc4)s3)c(=O)c2=O)C1 (stereo not shown) [Example 338, 3-(2,3-dioxo-4-((5-phenyl-1,3,4-thiadiazol-2-yl)methyl)-3,4-dihydropyrazin-1(2H)-yl)cyclopentane-1-carbonitrile] | 12 nM |
| O=c1c(=O)n(C23CC(C2)C3)ccn1Cc1cc(-c2cccnc2)on1 [Example 212, 1-(bicyclo[1.1.1]pentan-1-yl)-4-((5-(pyridin-3-yl)isoxazol-3-yl)methyl)-1,4-dihydropyrazine-2,3-dione] | 10 nM |
| O=c1c(=O)n(C23CC(F)(C2)C3)ccn1Cc1ccc(-n2nccn2)cn1 [Example 217, 1-((5-(2H-1,2,3-triazol-2-yl)pyridin-2-yl)methyl)-4-(3-fluorobicyclo[1.1.1]pentan-1-yl)-1,4-dihydropyrazine-2,3-dione] | 42 nM |
| O=c1c(=O)n(C23CC(C2)C3)ccn1Cc1cc(-c2ccccn2)on1 [Example 169, 1-(bicyclo[1.1.1]pentan-1-yl)-4-((5-(pyridin-2-yl)isoxazol-3-yl)methyl)-1,4-dihydropyrazine-2,3-dione] | 7 nM |
| CCOc1ccc(CN2CCN(C3CCCC3)C(=O)C2=O)nn1 [Example 340, 1-cyclopentyl-4-((6-ethoxypyridazin-3-yl)methyl)piperazine-2,3-dione] | 70 nM |

| Structure (SMILES) | EC50 |
| --- | --- |
| O=C1C(=O)N(C2CCCC2)CCN1Cc1ccc(-n2ccnn2)nn1 [Example 321, 1-((6-(1H-1,2,3-triazol-1-yl)pyridazin-3-yl)methyl)-4-cyclopentylpiperazine-2,3-dione] | 21 nM |
| CC1(N2CCN(Cc3nnc(-c4ccccc4)s3)C(=O)C2=O)CC1 [Example 303, 1-(1-methylcyclopropyl)-4-((5-phenyl-1,3,4-thiadiazol-2-yl)methyl)piperazine-2,3-dione] | 28 nM |
| O=C1C(=O)N(C23CC(F)(C2)C3)CCN1Cc1ccc(-n2ccnn2)cn1 [Example 263, 1-((5-(1H-1,2,3-triazol-1-yl)pyridin-2-yl)methyl)-4-(3-fluorobicyclo[1.1.1]pentan-1-yl)piperazine-2,3-dione] | 995 nM |
| N#CC1(n2ccn(Cc3ccc(-n4ccnn4)nc3)c(=O)c2=O)CC1 [Example 390, 1-(4-((6-(1H-1,2,3-triazol-1-yl)pyridin-3-yl)methyl)-2,3-dioxo-3,4-dihydropyrazin-1(2H)-yl)cyclopropane-1-carbonitrile] | 343 nM |
| N#CC1(n2ccn(Cc3ccc(-c4ccccn4)nn3)c(=O)c2=O)CC1 [Example 91, 1-(2,3-dioxo-4-((6-(pyridin-2-yl)pyridazin-3-yl)methyl)-3,4-dihydropyrazin-1(2H)-yl)cyclopropane-1-carbonitrile] | 162 nM |
| O=C1C(=O)N(C2CCCC2)CCN1Cc1nnc(-c2nccs2)s1 [Example 363, 1-cyclopentyl-4-((5-(thiazol-2-yl)-1,3,4-thiadiazol-2-yl)methyl)piperazine-2,3-dione] | 25 nM |
| C[C@H](c1nnc(-c2ccccc2)s1)N1CCN(C2CCCC2)C(=O)C1=O [Example 348, (R)-1-cyclopentyl-4-(1-(5-phenyl-1,3,4-thiadiazol-2-yl)ethyl)piperazine-2,3-dione] | 18 nM |
| CC(c1ccc(-c2ccccc2)nc1)N1CCN(C2CCCC2)C(=O)C1=O (single isomer, unassigned) [Example 99, (R or S)-1-cyclopentyl-4-(1-(6-phenylpyridin-3-yl)ethyl)piperazine-2,3-dione] | 12 nM |
| CC(c1cnc(-c2ccccc2)cn1)N1CCN(C2CCC2)C(=O)C1=O (stereo not shown) [Example 108, 1-cyclobutyl-4-(1-(5-phenylpyrazin-2-yl)ethyl)piperazine-2,3-dione] | 20 nM |
| O=C1C(=O)N(C2CCOC2)CCN1Cc1ncc(-c2ccccc2)cn1 (stereo not shown) [Example 279, 1-((5-phenylpyrimidin-2-yl)methyl)-4-(tetrahydrofuran-3-yl)piperazine-2,3-dione] | 68 nM |
| O=c1c(=O)n(C2CCC2)ccn1Cc1cc(-c2ccccc2)no1 [Example 151, 1-cyclobutyl-4-((3-phenylisoxazol-5-yl)methyl)-1,4-dihydropyrazine-2,3-dione] | 1 nM |
| O=C1C(=O)N(C2CC(O)C2)CCN1Cc1ccc(-c2ccccc2F)nn1 (stereo not shown) [Example 434, 1-((6-(2-fluorophenyl)pyridazin-3-yl)methyl)-4-(3-hydroxycyclobutyl)piperazine-2,3-dione] | 71 nM |
| CC1(n2ccn(Cc3cc(-c4ccccc4)on3)c(=O)c2=O)CCC1 [Example 420, 1-(1-methylcyclobutyl)-4-((5-phenylisoxazol-3-yl)methyl)-1,4-dihydropyrazine-2,3-dione] | 5 nM |
| O=c1c(=O)n(C23CC(C2)C3)ccn1Cc1ccc(-c2cccc(F)c2)nn1 [Example 64, 1-(bicyclo[1.1.1]pentan-1-yl)-4-((6-(3-fluorophenyl)pyridazin-3-yl)methyl)-1,4-dihydropyrazine-2,3-dione] | 4 nM |
| O=c1c(=O)n(C2CCC2)ccn1Cc1cn(-c2ccccc2)cn1 [Example 175, 1-cyclobutyl-4-((1-phenyl-1H-imidazol-4-yl)methyl)-1,4-dihydropyrazine-2,3-dione] | 14 nM |
| O=C1C(=O)N(C2CCCC2)CCN1Cc1ccc(-c2cncs2)nn1 [Example 11, 1-cyclopentyl-4-((6-(thiazol-5-yl)pyridazin-3-yl)methyl)piperazine-2,3-dione] | 16 nM |
| N#CC1(n2ccn(Cc3cc(-c4ccccn4)on3)c(=O)c2=O)CC1 [Example 207, 1-(2,3-dioxo-4-((5-(pyridin-2-yl)isoxazol-3-yl)methyl)-3,4-dihydropyrazin-1(2H)-yl)cyclopropane-1-carbonitrile] | 43 nM |
| O=C1C(=O)N(C2CCCC2)CCN1Cc1ncc(-c2cncs2)cc1F [Example 10, 1-cyclopentyl-4-((3-fluoro-5-(thiazol-5-yl)pyridin-2-yl)methyl)piperazine-2,3-dione] | 21 nM |
| O=C1C(=O)N(C23CC(F)(C2)C3)CCN1Cc1ccc(-c2cncs2)nn1 [Example 243, 1-(3-fluorobicyclo[1.1.1]pentan-1-yl)-4-((6-(thiazol-5-yl)pyridazin-3-yl)methyl)piperazine-2,3-dione] | 30 nM |
| O=C1C(=O)N(C2CCC2)CCN1Cc1ccc(-c2cnco2)nn1 [Example 394, 1-cyclobutyl-4-((6-(oxazol-5-yl)pyridazin-3-yl)methyl)piperazine-2,3-dione] | 31 nM |
